Source: the supplement of paper PMC11208160

Experiment: recombinant UMI read abundance after kanamycin selection (control-corrected) (log10(CPM+1)); higher = more efficient recombination; extreme values may be limits of the assay; sequences stand for … in AGTGCAGAGAAAATCGGCCAGTTTTCTCTGCCTGCAGTCCGCATGCCGTGGGACCCCTTGGGTTCTAACCTGTTGCCTAGATTTATGCAGCGGACTGCCTTTCTCCCAAAGTGATAAACCGG…AGGTTGGTTTCACT; site = the 11-nt donor
In short: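 Sequencing read counts were converted to CPM, averaged over two replicates and scaled by control-derived factors. Results are given as log10(CPM+1). The reads covered the donor–target junction of recombinant UMIs from a pooled Escherichia coli screen of donor and donor-binding-loop pairs for the IS621 bridge recombinase.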
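Note: IS621 bridge recombinase in Escherichia coli cells against a fixed T5 target plasmid.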

Sequence | recombinant UMI read abundance (log10)
GTACGAGCATGGACCGGTTTTCCCGGTAATCCGTATTTGCA (site GTGCGAGCTTG) | 2.02
GTACGAGCATGGACCGGTTTTCCCGGTAATCCGTATTTGCA (site GTTCGAGCTTG) | 0.659
GTACTAACATGGACCGGTTTTCCCGGTAATCCGTATTTGGA (site ATACTAACTTC) | 0.569
GTACTAACATGGACCGGTTTTCCCGGTAATCCGTATTTGGA (site CTACTAACTTC) | 0.455
GTACTAACATGGACCGGTTTTCCCGGTAATCCGTATTTGGA (site GTACTAACTTC) | 1.29
GTACTAACATGGACCGGTTTTCCCGGTAATCCGTATTTGGA (site TTACTAACTTC) | 0.593
GTAGATACATGGACCGGTTTTCCCGGTAATCCGTATTTGAC (site GTAGATACTGT) | 2.29
GTAGATACATGGACCGGTTTTCCCGGTAATCCGTATTTGAC (site GTAGCTACTGT) | 0
GTAGATACATGGACCGGTTTTCCCGGTAATCCGTATTTGAC (site GTAGGTACTGT) | 1.38
GTAGATACATGGACCGGTTTTCCCGGTAATCCGTATTTGAC (site GTAGTTACTGT) | 0.903
GTAGATTCATGGACCGGTTTTCCCGGTAATCCGTATTTGCA (site GTAGATTCTTG) | 2.86
GTAGCAGCATGGACCGGTTTTCCCGGTAATCCGTATTTGGA (site GTAGCAGCTTC) | 0.62
GTAGCTCCATGGACCGGTTTTCCCGGTAATCCGTATTTGAA (site GTAGCTCCTTT) | 1
GTAGGGACATGGACCGGTTTTCCCGGTAATCCGTATTTGAC (site GTAGGAACTGT) | 2.21
GTAGGGACATGGACCGGTTTTCCCGGTAATCCGTATTTGAC (site GTAGGCACTGT) | 2.04
GTAGGGACATGGACCGGTTTTCCCGGTAATCCGTATTTGAC (site GTAGGGACTGT) | 2.63
GTAGGGACATGGACCGGTTTTCCCGGTAATCCGTATTTGAC (site GTAGGTACTGT) | 1.87
GTAGGTACATGGACCGGTTTTCCCGGTAATCCGTATTTGTT (site GTAGGTACTAA) | 1.01
GTAGGTCCATGGACCGGTTTTCCCGGTAATCCGTATTTGAC (site GTAGGTACTGT) | 0
GTAGGTCCATGGACCGGTTTTCCCGGTAATCCGTATTTGAC (site GTAGGTCCTGT) | 0
GTAGGTCCATGGACCGGTTTTCCCGGTAATCCGTATTTGAC (site GTAGGTGCTGT) | 0
GTAGGTCCATGGACCGGTTTTCCCGGTAATCCGTATTTGAC (site GTAGGTTCTGT) | 0
GTAGGTTCATGGACCGGTTTTCCCGGTAATCCGTATTTGAC (site GTAGGTACTGT) | 1.88

Sequence | recombinant UMI read abundance (log10)
GTAGGTTCATGGACCGGTTTTCCCGGTAATCCGTATTTGAC (site GTAGGTCCTGT) | 1.78
GTAGGTTCATGGACCGGTTTTCCCGGTAATCCGTATTTGAC (site GTAGGTGCTGT) | 0
GTAGGTTCATGGACCGGTTTTCCCGGTAATCCGTATTTGAC (site GTAGGTTCTGT) | 2.46
GTAGTATCATGGACCGGTTTTCCCGGTAATCCGTATTTGAT (site CTAGTATCTGT) | 1.05
GTAGTATCATGGACCGGTTTTCCCGGTAATCCGTATTTGAT (site GTAGTATCTAT) | 3.08
GTAGTGGCATGGACCGGTTTTCCCGGTAATCCGTATTTGGT (site GAAGTGGCTAC) | 0.458
GTAGTGGCATGGACCGGTTTTCCCGGTAATCCGTATTTGGT (site GCAGTGGCTAC) | 0.771
GTAGTGGCATGGACCGGTTTTCCCGGTAATCCGTATTTGGT (site GGAGTGGCTAC) | 0.028
GTAGTGGCATGGACCGGTTTTCCCGGTAATCCGTATTTGGT (site GTAGTGGCTAC) | 1.85
GTAGTGTCATGGACCGGTTTTCCCGGTAATCCGTATTTGAC (site CTAGTATCTGT) | 2.03
GTAGTGTCATGGACCGGTTTTCCCGGTAATCCGTATTTGAC (site GTAGTGTCTGT) | 3.23
GTAGTTTCATGGACCGGTTTTCCCGGTAATCCGTATTTGTA (site GTAGTTTCTTA) | 2.61
GTATGCACATGGACCGGTTTTCCCGGTAATCCGTATTTGCA (site GTATGCACTTA) | 0.546
GTATGCACATGGACCGGTTTTCCCGGTAATCCGTATTTGCA (site GTATGCACTTC) | 0.0124
GTATGCACATGGACCGGTTTTCCCGGTAATCCGTATTTGCA (site GTATGCACTTG) | 2.67
GTATGCACATGGACCGGTTTTCCCGGTAATCCGTATTTGCA (site GTATGCACTTT) | 0.427
GTATGCACATGGACCGGTTTTCCCGGTAATCCGTATTTGTA (site ATATGCACTTA) | 0.664
GTATGCACATGGACCGGTTTTCCCGGTAATCCGTATTTGTA (site CTATGCACTTA) | 0.712
GTATGCACATGGACCGGTTTTCCCGGTAATCCGTATTTGTA (site GAATGCACTTA) | 0.0229
GTATGCACATGGACCGGTTTTCCCGGTAATCCGTATTTGTA (site GCATGCACTTA) | 0.671
GTATGCACATGGACCGGTTTTCCCGGTAATCCGTATTTGTA (site GGATGCACTTA) | 0.58
GTATGCACATGGACCGGTTTTCCCGGTAATCCGTATTTGTA (site GTAAGCACTTA) | 0.776
GTATGCACATGGACCGGTTTTCCCGGTAATCCGTATTTGTA (site GTACGCACTTA) | 1.72

Sequence | recombinant UMI read abundance (log10)
GTATGCACATGGACCGGTTTTCCCGGTAATCCGTATTTGTA (site GTAGGCACTTA) | 0.461
GTATGCACATGGACCGGTTTTCCCGGTAATCCGTATTTGTA (site GTATACACTTA) | 2.07
GTATGCACATGGACCGGTTTTCCCGGTAATCCGTATTTGTA (site GTATCCACTTA) | 0.28
GTATGCACATGGACCGGTTTTCCCGGTAATCCGTATTTGTA (site GTATGAACTTA) | 0.66
GTATGCACATGGACCGGTTTTCCCGGTAATCCGTATTTGTA (site GTATGCACTAA) | 0.126
GTATGCACATGGACCGGTTTTCCCGGTAATCCGTATTTGTA (site GTATGCACTCA) | 0.0356
GTATGCACATGGACCGGTTTTCCCGGTAATCCGTATTTGTA (site GTATGCACTGA) | 1.72
GTATGCACATGGACCGGTTTTCCCGGTAATCCGTATTTGTA (site GTATGCACTTA) | 2.07
GTATGCACATGGACCGGTTTTCCCGGTAATCCGTATTTGTA (site GTATGCACTTC) | 0.0256
GTATGCACATGGACCGGTTTTCCCGGTAATCCGTATTTGTA (site GTATGCACTTG) | 1.71
GTATGCACATGGACCGGTTTTCCCGGTAATCCGTATTTGTA (site GTATGCACTTT) | 0.44
GTATGCACATGGACCGGTTTTCCCGGTAATCCGTATTTGTA (site GTATGCCCTTA) | 0.0248
GTATGCACATGGACCGGTTTTCCCGGTAATCCGTATTTGTA (site GTATGCGCTTA) | 0.376
GTATGCACATGGACCGGTTTTCCCGGTAATCCGTATTTGTA (site GTATGCTCTTA) | 1.19
GTATGCACATGGACCGGTTTTCCCGGTAATCCGTATTTGTA (site GTATGGACTTA) | 0.0258
GTATGCACATGGACCGGTTTTCCCGGTAATCCGTATTTGTA (site GTATGTACTTA) | 0.274
GTATGCACATGGACCGGTTTTCCCGGTAATCCGTATTTGTA (site GTATTCACTTA) | 1.3
GTATGCACATGGACCGGTTTTCCCGGTAATCCGTATTTGTA (site GTCTGCACTTA) | 0.0377
GTATGCACATGGACCGGTTTTCCCGGTAATCCGTATTTGTA (site GTGTGCACTTA) | 0.384
GTATGCACATGGACCGGTTTTCCCGGTAATCCGTATTTGTA (site GTTTGCACTTA) | 0
GTATGCACATGGACCGGTTTTCCCGGTAATCCGTATTTGTA (site TTATGCACTTA) | 0.185
GTATGTACATGGACCGGTTTTCCCGGTAATCCGTATTTGTA (site GTATGAACTTA) | 1.74
